System: liver cDNAs of adult male LMB
Assay: LMB gene arrays of SSH-derived cDNAs: liver of fish treated with androgens
Format: in vivo, largemouth bass (LMB)
Conditions: DHT 62.5 μg/g, 11-KT 20 μg/g vs DMSO
Description: For each cDNA clone, the general background of each membrane was subtracted from the average value of the duplicate spots on the membrane. The values were then normalized to the average value of seven cDNA clones specific to ribosomal genes and the fold change calculated by dividing the mean of each treatment by the mean of the control. Those genes which changed by 2-fold or more were graphed. Significant differences (p<0.05) were determined by ANOVA and secondary testing was done by using […].

C[C@]12CC(=O)[C@H]3[C@@H](CCC4=CC(=O)CC[C@@]43C)[C@@H]1CC[C@@H]2O [11-KT, 11-ketotestosterone]
24-1 (LOC L1) change: down | ALPHA TUBULIN (LOC M2) change: down | COMPLEMENT C3 (LOC L3) change: down | CYSTATIN (LOC O3) change: down-regulated | ER GAMMA 5′ 2F (LOC L14) change: down | EST SEASONAL 9 (LOC D13) change: up (Those genes which changed by 2-fold or more were graphed) | EST SEASONAL 51 (LOC K11) change: down | EST SEASONAL 55 (LOC M4) change: down | EST SEASONAL 62 (LOC B14) change: up (Those genes which changed by 2-fold or more were graphed) | EST SEASONAL 64 (LOC H7) change: up (Those genes which changed by 2-fold or more were graphed) | EST SEASONAL 72 (LOC K12) change: down | EST SEASONAL F21 (LOC O13) change: down | ESTP4_H07 (LOC K13) change: up (Those genes which changed by 2-fold or more were graphed) | GP3 11C (LOC K1) change: down | LDL RC (LOC J10) change: down | LMB24-1 (Unknown) differentially expressed by androgens: dn-reg DHT; | LMB151 vitellogenin receptor differentially expressed by: Dn-reg | LMB CYSTATIN-PREC (Cystatin precursor) differentially expressed by: Dn-reg 11-KT | LMB EST--SEASONAL_64 differentially expressed by: up-reg DHT; | LMB EST--SEASONAL_72 differentially expressed by: Dn-reg DHT; | LMB EST--SEASONAL_F17 differentially expressed by: Dn-reg 11-KT | LMB EST-SEASONAL_55 differentially expressed by: Dn-reg 11-KT; | LMB EST-SEASONALf17 differentially expressed by: down by 11KT | LMB RIKEN 1110001M01 differentially expressed by: up by 11KT; | LMB_ALPHA-TUBULIN (alpha tubulin) differentially expressed by: Dn-reg 11-kt; | LMB_COMPLEMENT-C3 (Complement C3 precursor) differentially expressed by: Dn-reg DHT; | LMB_ER-GAMMA ESTROGEN RECEPTOR GAMMA differentially expressed by (11-KT): Dn-reg 11-KT; | LMB_EST-SEASONAL_09 differentially expressed by: up-reg DHT; | LMB_EST-SEASONAL_11 differentially expressed by: dn-reg 11-KT | LMB_EST-SEASONAL_51 differentially expressed by: dn 11-KT; | LMB_ESTDHT64 differentially expressed by: up by 11KT | LMB_ESTDHT_62 differentially expressed by: up-reg DHT; | LMB_LDL RC (LDL receptor) differentially expressed by: Dn-reg DHT; | LMB_RXR INTERACT PROT (Retinoid X receptor interacting protein) differentially expressed by: Dn-reg 11-KT; | LMB_SOL-CAR-25A#5 (solute carrier family 25 alpha member 5) differentially expressed by: up-reg DHT; | LMB_SSAT (SSAT) differentially expressed by: up-reg DHT; | LMB_WARM-WATER ACC PROTEIN (Warm water acclimation-related protein) differentially expressed by: up-reg 11-KT | LMB_ZPC1 (ZPC1) differentially expressed by: up-reg DHT; | LMB_ZPC4 (ZPC4) differentially expressed by: up-reg DHT; | PTTP (LOC O10) change: up- | RETINOL DEHYDROGENASE (LOC M11) change: up (Those genes which changed by 2-fold or more were graphed) | RIKEN 1110001M01 (LOC O11) change: up (Those genes which changed by 2-fold or more were graphed) | RXR INTERACTING PROT (LOC L11) change: down | SOLUTE CARRIER (LOC B13) change: up (Those genes which changed by 2-fold or more were graphed) | SSAT (LOC C13) change: up (Those genes which changed by 2-fold or more were graphed) | TFIID (change to liver regeration related protein) (LOC M12) change: down | VTG PRECURSOR (LOC D14) change: up (Those genes which changed by 2-fold or more were graphed) | VTG RC (LOC M14) change: down | ZPC1 (LOC H14) change: up (Those genes which changed by 2-fold or more were graphed) | ZPC4 (LOC I14) change: up (Those genes which changed by 2-fold or more were graphed) | warm water acclim (LOC E14) change: up (Those genes which changed by 2-fold or more were graphed)

C[C@]12CCC(=O)C[C@@H]1CC[C@@H]1[C@@H]2CC[C@]2(C)[C@@H](O)CC[C@@H]12 [DHT, dihydrotestosterone]
24-1 (LOC L1) change: down | 53-1 (LOC B2) change: down | 68-1 (LOC C2) change: down | 97-8 (LOC F2) change: up (Those genes which changed by 2-fold or more were graphed) | ALDOLASE B (LOC K2) change: down | ALPHA 1 ANTI-TRYPSIN (LOC L2) change: down | ALPHA TUBULIN (LOC M2) change: down | APOL[…] (LOC C3) change: down | ATP SYNTHASE (LOC K7) change: up (Those genes which changed by 2-fold or more were graphed) | ATPASE 6 (LOC E3) change: up (Those genes which changed by 2-fold or more were graphed) | ATPASE SUBUNIT 6 (LOC F9) change: up (Those genes which changed by 2-fold or more were graphed) | COMPLEMENT C3 (LOC L3) change: down | CYSTATIN (LOC O3) change: down | ER GAMMA 5′ 2F (LOC L14) change: down | EST DHT64 (LOC D4) change: up (Those genes which changed by 2-fold or more were graphed) | EST P4_06 (LOC L8) change: up (Those genes which changed by 2-fold or more were graphed) | EST P4_D08 (LOC N8) change: up (Those genes which changed by 2-fold or more were graphed) | EST SEASONAL 9 (LOC D13) change: up (Those genes which changed by 2-fold or more were graphed) | EST SEASONAL 11 (LOC O6) change: down | EST SEASONAL 12 (LOC B8) change: up (Those genes which changed by 2-fold or more were graphed) | EST SEASONAL 42 (LOC H10) change: down | EST SEASONAL 51 (LOC K11) change: down | EST SEASONAL 55 (LOC M4) change: down | EST SEASONAL 56 (LOC F12) change: up (Those genes which changed by 2-fold or more were graphed) | EST SEASONAL 62 (LOC B14) change: up (Those genes which changed by 2-fold or more were graphed) | EST SEASONAL 64 (LOC H7) change: up (Those genes which changed by 2-fold or more were graphed) | EST SEASONAL 72 (LOC K12) change: down | EST SEASONAL 88 (LOC E12) change: up (Those genes which changed by 2-fold or more were graphed) | EST SEASONAL 90 (LOC L9) change: down | EST SEASONAL F17 (LOC B9) change: down | EST SEASONAL F21 (LOC O13) change: down | ESTDHT60 (LOC F5) change: down | ESTP4_C04 (LOC G9) change: down | ESTP4_E01 (LOC K5) change: down | ESTP4_E06 (LOC D6) change: down | ESTP4_H07 (LOC K13) change: up (Those genes which changed by 2-fold or more were graphed) | GP3 11C (LOC K1) change: down | G[…] (LOC G5) change: down-regulated and down | HAPTOGLOBIN (LOC I5) change: down | HEPCIDIN (LOC J5) change: down | IGF-I (LOC M5) change: down | LDL RC (LOC J10) change: down | LMB24-1 (Unknown) differentially expressed by androgens: dn-reg DHT; | LMB53-1 (unknown) differentially expressed by androgens: Down-reg. E2; | LMB68-1 (hypothetical protein) differentially expressed by: Dn-reg DHT | LMB97 choriogenin-3 differentially expressed by androgens: Up-reg E2; | LMB112-1 cathepsin (Aspartic protease) differentially expressed by androgens: up-reg E; NP: | LMB151 vitellogenin receptor differentially expressed by: Dn-reg | LMB CIS-RETIN DEHYDRO (cis-retinol dehydrogenase) differentially expressed by: up-reg DHT | LMB EST--SEASONAL_64 differentially expressed by: up-reg DHT; | LMB EST--SEASONAL_72 differentially expressed by: Dn-reg DHT; | LMB EST--SEASONAL_88 differentially expressed by: up-reg DHT; | LMB EST--SEASONAL_90 differentially expressed by: dn-reg DHT | LMB EST--SEASONAL_F21 differentially expressed by: Dn-reg DHT | LMB EST-SEASONAL_55 differentially expressed by: Dn-reg 11-KT; | LMB EST-SEASONAL_56 differentially expressed by: up-reg DHT; | LMB GLUT-PEROX III (Glutathione peroxidase III) differentially expressed by: Dn-reg DHT | LMB LIV-REGER-PROT differentially expressed by: down by DHT | LMB RIKEN 1110001M01 differentially expressed by: up by 11KT; | LMB_ALPHA-TUBULIN (alpha tubulin) differentially expressed by: Dn-reg 11-kt; | LMB_ATPASE 6 (ATPase subunit 6) differentially expressed by: up-reg DHT | LMB_COMPLEMENT-C3 (Complement C3 precursor) differentially expressed by: Dn-reg DHT; | LMB_EST-SEASONAL_09 differentially expressed by: up-reg DHT; | LMB_EST-SEASONAL_12 differentially expressed by: up-reg DHT | LMB_EST-SEASONAL_51 differentially expressed by: dn 11-KT; | LMB_ESTDHT_62 differentially expressed by: up-reg DHT; | LMB_ESTP4-E01 differentially expressed by: down by DHT | LMB_HAPTOGLOBIN (Haptoglobin) differentially expressed by: Dn-reg DHT | LMB_HEPCIDIN (Hepcidin precursor) differentially expressed by: dn-reg DHT | LMB_LDL RC (LDL receptor) differentially expressed by: Dn-reg DHT; | LMB_LECTIN STL2 (Rhamnose binding lectin STL2) differentially expressed by: up-reg DHT | LMB_MITOCHON-ATP-SYNTHASE (ATP synthase alpha chain mitochondrial precursor) differentially expressed by: up-reg DHT | LMB_RXR INTERACT PROT (Retinoid X receptor interacting protein) differentially expressed by: Dn-reg 11-KT; | LMB_SOL-CAR-25A#5 (solute carrier family 25 alpha member 5) differentially expressed by: up-reg DHT; | LMB_SSAT (SSAT) differentially expressed by: up-reg DHT; | LMB_ZPC1 (ZPC1) differentially expressed by: up-reg DHT; | LMB_ZPC4 (ZPC4) differentially expressed by: up-reg DHT; | PTTP (LOC O10) change: up (Those genes which changed by 2-fold or more were graphed) | RETINOL DEHYDROGENASE (LOC M11) change: up (Those genes which changed by 2-fold or more were graphed) | RHAMNOSE BINDING LECTIN (LOC G13) change: up (Those genes which changed by 2-fold or more were graphed) | RIKEN 1110001M01 (LOC O11) change: up (Those genes which changed by 2-fold or more were graphed) | RIKEN 2700038C09 (LOC D12) change: down | RXR I[…] (LOC L11) change: down | SOLUTE CARRIER (LOC B13) change: up (Those genes which changed by 2-fold or more were graphed) | SSAT (LOC C13) change: up (Those genes which changed by 2-fold or more were graphed) | TFIID (change to liver regeration related protein) (LOC M12) change: down | TFIIIA (LOC J13) change: up (Those genes which changed by 2-fold or more were graphed) | UNNAMED PROTEIN (LOC C14) change: up (Those genes which changed by 2-fold or more were graphed) | VTG PRECURSOR (LOC D14) change: up (Those genes which changed by 2-fold or more were graphed) | VTG RC (LOC M14) change: down | ZPC1 (LOC H14) change: up (Those genes which changed by 2-fold or more were graphed) | ZPC4 (LOC I14) change: up (Those genes which changed by 2-fold or more were graphed) | warm water acclim (LOC E14) change: up (Those genes which changed by 2-fold or more were graphed)
